Experimental data reported in US9696306B2, “Methods of reducing levels of tau” (The Trustees of Columbia University in the City of New York, priority 2011, dated 2017).

Key:
Type in all cases: cell-based, mouse
Aβ42 = Aβ42 detection by human specific ELISA in conditioned medium of Tg2576 mES cell derived neurons; details: for secretion of Aβ42: Tg2576 ES cell derived neurons, conditioned medium; for IC50: optimized 96 well platform, 24 hours
Excerpt: (§1) The reliable detection of proteolytic derivatives of APP, including AP, is critical for a physiologically relevant cell based AD model. It was established that ES cell-derived pyramidal neurons express the major proteolytic enzymes mediating APP processing, β-site APP cleaving enzyme (BACE1) and presenilin 1 (PS1) (FIG. 2a). Endogenous APP, BACE1 and PS1 were abundantly detected in ES cell-derived pyramidal neurons at DIV 7, 14, 21. APP and BACE1 were not detected in ES cells, but PS1 was detectable consistent with it's described role in development (Wong, P. C. et al. Nature 387, 288-292 (1997)). To achieve robust and reproducible neuronal expression of human APP, ES cells from the inner cell mass of blastocysts were isolated from a well characterized mouse model of AD, Tg2576. Tg2576 mice express human APP, harboring the Swedish mutation (APPsw) under the control of hamster PrP promoter (Hsiao, K. et al. Science 274, 99-102 (1996)). […] In Tg2576 ES cell derived neurons, APP cleavage products were readily detectable. C-terminal APP fragments (CTFs) were detected in the neuronal lysate by Western blot analysis (FIG. 2b). Both human β- and α-secretase-derived secreted soluble APP (sAPPβ and sAPPα, respectively) were detected using immunoprecipitation of conditioned medium with sβsw and Aβ levels were detected in conditioned media using a human Aβ specific ELISA (FIG. 2b-e). […] Consistent with previous studies in cell models and mouse brain, CTFs resulting from APP cleavage, accumulated in response to γ-secretase inhibitor treatment (FIG. 2b). Identical results were seen when neurons were infected with an APPsw Lenti virus and APP processing was analyzed (FIG. 6a-c). […] Thus, these neurons are suitable for lentiviral mediated genetic manipulation studies.
(§2) To accommodate high-throughput screening, Aβ detection assays using the Tg2576 mES cell derived neurons were miniaturized for a 96 well platform. […] It was determined that the optimal cell density of 1.5×10^5 cells/cm^2 maximized the cell viability signal. […]
(§3) Day 12-30 neurons were infected with a lentivirus carrying the Swedish variant of human APP (pLenti6/hAPPsw). […] The levels of Aβ42 and Aβ40 in conditioned media were determined using sandwich ELISA (Invitrogen) according to the manufacturer's protocol. Total Aβ was detected by immunoprecipitating conditioned medium with 6E10 (Covance) or 7N22 (Invitrogen) antibodies overnight at 4° C. Samples were separated using the NuPAGE gel system and Aβ peptides detected by quantitative Western blotting with 6E10. Full-length APP was detected by Western blot analysis using 6E10 (Covance) or polyclonal antibody against the C-terminus of APP (APP-Ctmaxi) (Okada, H., et al. FASEB J. 24, 2783-94 (2010)). […]

Aβ40 = Aβ40 detection by human specific ELISA in conditioned medium of Tg2576 mES cell derived neurons; details: for secretion of Aβ40: Tg2576 ES cell derived neurons, conditioned medium; for IC50: optimized 96 well platform, 24 hours
Excerpt: as §1, §2, §3

sAPPβ = test: Immunoprecipitation/Western blot of secreted sAPPβ from conditioned medium of Tg2576 ES cell derived neurons
Excerpt: (§4) The reliable detection of proteolytic derivatives of APP, including AP, is critical for a physiologically relevant cell based AD model. It was established that ES cell-derived pyramidal neurons express the major proteolytic enzymes mediating APP processing, β-site APP cleaving enzyme (BACE1) and presenilin 1 (PS1) (FIG. 2a). Endogenous APP, BACE1 and PS1 were abundantly detected in ES cell-derived pyramidal neurons at DIV 7, 14, 21. APP and BACE1 were not detected in ES cells, but PS1 was detectable consistent with it's described role in development (Wong, P. C. et al. Nature 387, 288-292 (1997)). […] In Tg2576 ES cell derived neurons, APP cleavage products were readily detectable. C-terminal APP fragments (CTFs) were detected in the neuronal lysate by Western blot analysis (FIG. 2b). Both human β- and α-secretase-derived secreted soluble APP (sAPPβ and sAPPα, respectively) were detected using immunoprecipitation of conditioned medium with sβsw and Aβ levels were detected in conditioned media using a human Aβ specific ELISA (FIG. 2b-e). […] Identical results were seen when neurons were infected with an APPsw Lenti virus and APP processing was analyzed (FIG. 6a-c). […]
(§5) Day 12-30 neurons were infected with a lentivirus carrying the Swedish variant of human APP (pLenti6/hAPPsw). […] Samples were separated using the NuPAGE gel system and Aβ peptides detected by quantitative Western blotting with 6E10. […]

sAPPα = test: Immunoprecipitation/Western blot of secreted sAPPα from conditioned medium of Tg2576 ES cell derived neurons
Excerpt: as §4, §5

APP-CTF = test: Western blot of C-terminal APP fragments (CTFs) in lysate of Tg2576 ES cell derived neurons; details: neuronal lysate
Excerpt: as §4, §5

Row | Compound | secretion of Aβ42 (Aβ42) | IC50 (Aβ42) | secretion of Aβ40 (Aβ40) | IC50 (Aβ40) | secretion of sAPPβ (sAPPβ) | level of sAPPα (sAPPα) | CTFs resulting from APP cleavage (APP-CTF)
1 | C[C@@H](NC(=O)c1cc(C(=O)N[C@@H](Cc2ccccc2)[C@H](O)CNC2CC2)cc(N(C)S(C)(=O)=O)c1)c1ccccc1 [BACE inhibitor] | decreased | 7.8 nM | decreased | 44.7 nM | decreased | – | –
2 | C[C@H](NC(=O)Cc1cc(F)cc(F)c1)C(=O)N[C@H]1N=C(c2ccccc2)c2ccccc2N(C)C1=O [Compound E] | inhibited | 0.2 nM | inhibited | 0.2 nM | without affecting | without affecting | accumulated
3 | CC(C)C[C@H](CC(=O)NO)C(=O)N[C@H](C(=O)N[C@@H](C)C(=O)NCCN)C(C)(C)C [TAPI-2] | – | – | – | – | – | decrease | –
